Molecules are shown by their SMILES.

For orientation: Ki means a measure of affinity in units of concentration, obtained from inhibition or displacement.

In the first assay the target is T1, Leukotriene B4 receptor (Homo sapiens, UniProt Q9NPC1+Q15722). As to the kind of experiment: Inhibition of leukotriene B4 (LTB4) binding to its receptor on intact human neutrophils.
T1 sequence (Q15722 whole entry, looked up): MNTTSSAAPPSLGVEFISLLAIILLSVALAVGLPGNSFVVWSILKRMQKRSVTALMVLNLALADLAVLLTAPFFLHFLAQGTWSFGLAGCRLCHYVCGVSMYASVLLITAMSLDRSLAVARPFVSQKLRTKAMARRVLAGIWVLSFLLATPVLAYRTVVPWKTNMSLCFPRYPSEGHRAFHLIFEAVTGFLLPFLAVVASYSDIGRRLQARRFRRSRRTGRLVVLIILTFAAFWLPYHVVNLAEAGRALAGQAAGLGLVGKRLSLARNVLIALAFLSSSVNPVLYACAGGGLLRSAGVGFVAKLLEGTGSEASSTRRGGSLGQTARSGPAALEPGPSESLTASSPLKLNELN
T1 sequence (Q9NPC1 whole entry, looked up): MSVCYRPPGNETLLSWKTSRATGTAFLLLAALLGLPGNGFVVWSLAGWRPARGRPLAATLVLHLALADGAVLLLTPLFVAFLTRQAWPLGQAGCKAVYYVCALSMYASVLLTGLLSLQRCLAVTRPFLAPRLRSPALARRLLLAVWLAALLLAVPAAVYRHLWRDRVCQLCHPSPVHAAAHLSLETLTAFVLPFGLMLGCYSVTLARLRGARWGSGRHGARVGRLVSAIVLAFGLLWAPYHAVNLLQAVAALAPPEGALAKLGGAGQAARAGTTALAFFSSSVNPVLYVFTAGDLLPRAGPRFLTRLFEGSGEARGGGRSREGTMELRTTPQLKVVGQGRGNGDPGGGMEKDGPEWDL
Settings: not given
As for `CCCc1c(OCCCCCOc2cc3c(cc2C(C)=O)CCC(C(=O)O)O3)ccc(C(C)=O)c1O` (racemic) [ABLUKAST], the inhibition constant Ki is on record as 320 nM.

In the case of `COc1cc(C(=O)N(C(C)C)C(C)C)ccc1OCCCCCOc1ccc(C(=N)N)cc1.O=C(O)/C=C\C(=O)O` [MOXILUBANT MALEATE], the Ki was 1 nM.

As for `COc1ccc(/C=C/CCCCOc2ccc(C(=O)c3cccc(C(=O)O)c3)cc2CCC(=O)O)cc1`, the inhibition constant (Ki) is recorded as 11 nM.

The next assay concerns the target T1, Leukotriene B4 receptor. In words: Inhibition of LTB4 -induced bronchoconstriction in guinea pigs following 0.1 mg/kg prior to challenge. Type of assay: functional, organism-based. More on the design: dose 0.1 mg/kg; scale not given: the % may be the effect or the level left. The settings on record: Cavia porcellus; target entry is the homologue from another species; at 0.1 mg/kg.
In turn, `COc1cc(C(=O)N(C(C)C)C(C)C)ccc1OCCCCCOc1ccc(C(=N)N)cc1.O=C(O)/C=C\C(=O)O` [MOXILUBANT MALEATE] came in with a Control of 80%.

`COc1ccc(/C=C/CCCCOc2ccc(C(=O)c3cccc(C(=O)O)c3)cc2CCC(=O)O)cc1` yielded a Control of 88%.

The molecule `COc1ccc(/C=C/CCCCOc2cccc(OCCCCC(=O)O)c2CCC(=O)O)cc1` returned a Control of 101%.

For `CCCc1c(OCCCOc2ccc(C(C)=O)c(OC)c2CCC)ccc2c1OC(C(=O)O)CC2` (racemic), the Control stood at 91%.

Another assay deals with Cavia porcellus. As to the kind of experiment: Percent of control LTB4 -induced bronchoconstriction in guinea pigs before 20 hours pretreatment at 1.0 mg/kg. Type of assay: functional.
Settings: not given
For `CCCc1c(OCCCCCCc2cccc(OCCCC(=O)O)c2CCC(=O)O)ccc2c1OCCC2=O`, the Control was 20%.

For `CCCc1c(OCCCCCCc2cccc(OCCCCCCC(=O)O)c2CCC(=O)O)ccc2c1OCCC2=O`, the Control is recorded as 73%.

In the case of `CCCc1c(OCCCOc2ccc(-c3cscn3)c(OC)c2CC2CC2)ccc2c1OC(C(=O)O)CC2` (configuration not stated), the Control was 36%.

Regarding `CCCc1c(OCCCCCCc2ccc(OCCCC(=O)O)cc2CCC(=O)O)ccc2c1OCCC2=O`, the Control was determined as 45%.

In the case of `CC(C)(CCCCOc1cc(-c2ccccc2)cc(-c2ccccc2)n1)c1nnn[nH]1`, the Control is recorded as 15%.

For `CCCc1c(OCCCCCCc2cccc(OCCCCCCCCC(=O)O)c2CCC(=O)O)ccc2c1OCCC2=O`, the Control turned out to be 24%.

On to `CCCc1c(OCCCCCCc2cccc(OCCCCC(=O)O)c2CCC(=O)O)ccc2c1OCCC2=O`, for which the Control was 26%.

On to `CCCc1c(OCCCCCCc2cccc(OCCCCCC(=O)O)c2CCC(=O)O)ccc2c1CCCC2=O`, for which the Control was determined as 25%.

`CCCc1c(OCCCCCCc2cccc(OCCCC(=O)O)c2CCC(=O)O)ccc2c1CCCC2=O`: the Control came out at 19%.

Regarding `CCCc1c(OCCCCCCc2cccc(OCCCCCCCC(=O)O)c2CCC(=O)O)ccc2c1OCCC2=O`, the Control came to 27%.

(Values after ChEMBL document CHEMBL1151094, “Benzenepropanoic acids containing chromanone or naphthalenone moieties are potent and orally active leukotriene B4 antagonists” (Bioorg Med Chem Lett, 1994).)
